Measured values taken from ChEMBL document CHEMBL5620396, “Phenotypic screening identifies a trisubstituted imidazo[1,2-a]pyridine series that induces differentiation in multiple AML cell lines” (Eur J Med Chem, 2023).
In brackets after ≈: the same amount, converted by molar mass. Activity calls are given as the source filed them. No cut-off for these calls is given here.

Legend:
HL-60 = assay: Induction of morphological changes in human HL-60 cells assessed as variations in nuclear segmentation at 10 uM; type: functional, cell-based
[1] = Semi-thermodynamic aqueous solubility of compound; type: physicochemical; conditions: buffer; read-out: Therm_solubility
THP-1 [2] = assay: Induction of differentiation in human THP-1 cells assessed as reduction in live cell number at 123 nM incubated for 4 days by acridine orange/DAPI staining based analysis; type: functional; conditions: time 4.0 day
ME-1 [3] = assay: Induction of differentiation in human ME-1 cells assessed as reduction in live cell number at 123 nM incubated for 4 days by acridine orange/DAPI staining based analysis; type: functional; conditions: time 4.0 day
Kasumi 1 [4] = assay: Induction of differentiation in human Kasumi 1 cells assessed as reduction in live cell number at 123 nM incubated for 4 days by acridine orange/DAPI staining based analysis; type: functional; conditions: time 4.0 day
THP-1 [5] = assay: Induction of morphological changes in human THP-1 cells assessed as variations in nuclear:cytoplasmic ratio at 10 uM; type: functional, cell-based
KG-1 = assay: Induction of morphological changes in human KG-1 cells assessed as variations in nuclear segmentation at 10 uM; type: functional, cell-based
ME-1 [6] = assay: Induction of morphological changes in human ME-1 cells assessed as variations in cell size and shape at 10 uM; type: functional, cell-based
Kasumi 1 [7] = assay: Induction of morphological changes in human Kasumi 1 cells assessed as variations in cell size and shape at 10 uM; type: functional, cell-based
Kasumi 1 [8] = assay: Induction of morphological changes in human Kasumi 1 cells assessed as variations in nuclear segmentation at 10 uM; type: functional, cell-based
Kasumi 1 [9] = assay: Induction of morphological changes in human Kasumi 1 cells assessed as variations in nuclear:cytoplasmic ratio at 10 uM; type: functional, cell-based
[10] = Half life in CD-1 mouse at 3 mg/kg, po administered as single dose and measured over 24 hrs; type: ADME, organism-based; conditions: in vivo
[11] = AUC (0 to 8 hrs) in CD-1 mouse at 3 mg/kg, po administered as single dose and measured over 24 hrs; type: ADME, organism-based; conditions: in vivo
[12] = Dose normalized Cmax in CD-1 mouse at 3 mg/kg, po administered as single dose and measured over 24 hrs; type: ADME, organism-based; conditions: in vivo
[13] = Half life in CD-1 mouse at 1 mg/kg, po administered as repeated dose on day 1 and 4; type: ADME, organism-based; conditions: in vivo, time 4 day
[14] = Dose normalized AUC (0 to 8 hrs) in CD-1 mouse at 1 mg/kg, po administered as repeated dose on day 1 and 4; type: ADME, organism-based; conditions: in vivo, 96 h, time 4 day

solubility thermodynamic [1]: 21 µM (≈ 9.44 µg/mL) | half-life [10]: 2.2 h | AUC(0-t) at 24 h [11]: 3060 ng·h/mL | Cmax/dose [12]: 120 ng/mL | half-life [13]: 2.5 h | AUC/dose [14]: 731 ng·h/mL
SMILES: Cc1cc(F)ccc1-c1cc(NS(C)(=O)=O)c2ncc(-c3ccc4c(cnn4C)c3)n2c1
Activity (HL-60): Active | Activity (THP-1 [2]): Active | Activity (ME-1 [3]): Active | Activity (Kasumi 1 [4]): Active | Activity (THP-1 [5]): Active | Activity (KG-1): Active | Activity (ME-1 [6]): Active | Activity (Kasumi 1 [7]): Active | Activity (Kasumi 1 [8]): Active | Activity (Kasumi 1 [9]): Active
